From patent US20240216344A1, “THIAZOLIDINEDIONE ANALOGS FOR THE TREATMENT OF NAFLD AND METABOLIC DISEASES” (Cirius Therapeutics, Inc., priority 2019, published 2024)

Test system: patients with biopsy-proven NASH with fibrosis and no cirrhosis
Experiment: EMMINENCE Phase 2b trial, safety and weight
Type: in vivo
Method: The primary efficacy endpoint was assessed at 12 months. Clinic visits were conducted at baseline, 1, 2, 3, 6, 9, and 12 months, followed 2 weeks later by a safety visit.
Safety: Safety was evaluated by adverse event incidence, and changes in clinical laboratory values, vital signs, and ECG parameters. Major adverse cardiovascular events (MACE) including death, non-fatal myocardial infarction (MI), unstable angina (USA) hospitalization, hospital admission for heart failure (HF), or non-fatal ischemic stroke; liver events including ascites, hepatic encephalopathy, variceal hemorrhage, hepatocellular carcinoma (HCC), or liver transplant; severe hypoglycemia; and bone fracture requiring surgery or hospitalization were adjudicated by an independent physician.
Using a modified intent-to-treat approach, treated patients were included for analysis in their randomly-assigned treatment groups. Participation of sites with serious GCP or quality concerns were terminated and their data excluded from the analyses. Post-baseline measures through 14 days after the last study drug dose were included. […] The central histopathologist's re-read of baseline biopsies was used as baseline. Patients who no longer qualified on re-read were included in the analyses. […] Stratification-adjusted risk differences adjusted similarly are provided. The primary analyses included only observed data; sensitivity analyses included multiply-imputing missing follow-up and considering missing follow-up as a non-responder. Each active dose was compared to placebo regarding changes in NASH CRN scores using analysis of covariance with adjustment for age, sex, diabetes mellitus, Vitamin E≥400 IU, baseline fibrosis F1 versus F2/F3, and the baseline value. Changes in laboratory markers from baseline to 6 months and to 12 months were analyzed similarly.

Question: Which “Non-cardiac chest pain (SAE)” value (62.5 mg) does the source give for `COc1cccc(C(=O)COc2ccc(CC3SC(=O)NC3=O)cc2)c1` (centres unmarked) [MSDC-0602K] here?
Answer: 1 patients

Question: What about the “Subjects with TEAEs Leading to Study Drug Discontinuation” value (shortened to “Subjects with TEAEs Leading”) (62.5 mg) of the same molecule?
Answer: 2 (2.0) n (%)

Question: And the “Subjects with TEAEs Related to Study Drug” value (62.5 mg)?
Answer: 22 (22.2) n (%)

Question: And the “Subjects with TEAEs Related to Study Drug and Leading to Study Drug Discontinuation” value (62.5 mg)?
Answer: 0 (0.0) n (%)

Question: What about the “Subjects with any Treatment-Emergent Adverse Event (TEAE)” value (“Subjects … (TEAE)” for short) (62.5 mg) of the same molecule?
Answer: 78 (78.8) n (%)

Question: What about the “TESAE: General disorders and administration site conditions” value (62.5 mg) of the same molecule?
Answer: 1 ( 1.0) n (%)

Question: And the “TESAE: Non-cardiac chest pain” value (62.5 mg)?
Answer: 1 ( 1.0) n (%)

Question: And the “adverse events of edema” value (62.5 mg)?
Answer: 6 patients

Question: What about the “fractures requiring hospitalization or surgery” value (62.5 mg) of the same molecule?
Answer: 1 patients

Question: And the treatment discontinuation rate (62.5 mg)?
Answer: 9.1%

Question: What about the “unadjusted median weight change” value (62.5 mg) of the same molecule?
Answer: 0.82 kg

Question: And the “Non-cardiac chest pain (SAE)” value (125 mg)?
Answer: 1 patients

Question: And the “Subjects with TEAEs Leading” value (125 mg)?
Answer: 3 (3.1) n (%)

Question: What about the “Subjects with TEAEs Related to Study Drug” value (125 mg) of the same molecule?
Answer: 26 (26.5) n (%)

Question: And the “Subjects with TEAEs Related to Study Drug and Leading to Study Drug Discontinuation” value (125 mg)?
Answer: 1 (1.0) n (%)

Question: What about the “Subjects … (TEAE)” value (125 mg) of the same molecule?
Answer: 76 (77.6) n (%)

Question: What about the “TESAE: General disorders and administration site conditions” value (125 mg) of the same molecule?
Answer: 2 (2.0) n (%)

Question: What about the “TESAE: Non-cardiac chest pain” value (125 mg) of the same molecule?
Answer: 1 (1.0) n (%)

Question: What about the “adjudicated HF hospitalization” value (125 mg) of the same molecule?
Answer: One

Question: What about the “adjudicated MACE” value (125 mg) of the same molecule?
Answer: two

Question: And the “adverse events of edema” value (125 mg)?
Answer: 11 patients

Question: What about the “fractures requiring hospitalization or surgery” value (125 mg) of the same molecule?
Answer: 1 patients

Question: And the treatment discontinuation rate (125 mg)?
Answer: 12.2%

Question: And the “unadjusted median weight change” value (125 mg)?
Answer: 1.10 kg

Question: What about the unrelated deaths (125 mg) of the same molecule?
Answer: one

Question: And the “Subjects with TEAEs Leading” value (250 mg)?
Answer: 1 (1.0) n (%)

Question: And the “Subjects with TEAEs Related to Study Drug” value (250 mg)?
Answer: 25 (24.8) n (%)

Question: And the “Subjects with TEAEs Related to Study Drug and Leading to Study Drug Discontinuation” value (250 mg)?
Answer: 0 (0.0) n (%)

Question: And the “Subjects … (TEAE)” value (250 mg)?
Answer: 77 (76.2) n (%)

Question: And the “TESAE: General disorders and administration site conditions” value (250 mg)?
Answer: 1 (1.0) n (%)

Question: And the “TESAE: Non-cardiac chest pain” value (250 mg)?
Answer: 0 (0.0) n (%)

Question: What about the “adjudicated severe hypoglycemia event” value (250 mg) of the same molecule?
Answer: One

Question: And the “adverse events of edema” value (250 mg)?
Answer: 7 patients

Question: What about the “fractures requiring hospitalization or surgery” value (250 mg) of the same molecule?
Answer: 2 patients

Question: And the treatment discontinuation rate (250 mg)?
Answer: 12.9%

Question: What about the “unadjusted median weight change” value (250 mg) of the same molecule?
Answer: 2.28 kg

Question: And the tolerability (12 months daily oral)?
Answer: well tolerated

Question: What about the adjudicated liver events (all groups) of the same molecule?
Answer: no adjudicated liver events occurred
